Earlier results as cited in patent US20080242727A1, “DIETARY COMPOSITIONS CONTAINING ALPHA AMINO N-BUTYRATE AND METHODS OF ENHANCING LEAN BODY MASS” (priority 2007, published 2008).

Legend:
erythroid progenitors = conditions: in vivo or in culture
[1] = system: protein synthesis in skeletal muscle; conditions: for protein synthesis in skeletal muscle of food-deprived rats: oral administration, vs saline-treated controls
[2] = system: hearts perfused with buffer; conditions: for negative nitrogen balance: buffer with glucose and normal plasma levels of other amino acids, except BCAA
[3] = system: hemidiaphragms from fed or fasted rats; conditions: in vitro; for specific activity of muscle proteins (protein synthesis): [14C]lysine, with or without insulin
rat liver proteolysis = conditions: out of 12 amino acids tested; only at concentrations much higher than physiological
[4] = dose of as little as 3 g/day

## CCC(N)C(=O)O (stereo not drawn) [ABA, alpha amino n-butyrate]
Erythroid progenitors
  growth of erythroid progenitors: stimulated the growth of all classes of erythroid progenitors

## CC(C)[C@H](N)C(=O)O [valine]
[1]
  protein synthesis in skeletal muscle of food-deprived rats: ineffective
[2]
  negative nitrogen balance: not
[3]
  specific activity of muscle proteins (protein synthesis): no effect

## CC(C)C[C@H](N)C(=O)O [Leucine, L-Leucine]
Rat liver proteolysis
  inhibition of deprivation-induced rat liver proteolysis: strongest inhibitor
[1]; independently of increases in serum insulin
  protein synthesis / eIF4F formation: stimulated protein synthesis by enhancing eukaryotic initiation factor (eIF)4F formation
[1]
  protein synthesis in skeletal muscle of food-deprived rats: stimulated protein synthesis
[1]; oral gavage to rats after exercise
  muscle synthesis after exercise: stimulated muscle synthesis independent of increased plasma insulin
[1]; oral, rats
  glucocorticoid-induced decreases in protein synthesis and mRNA translation: restored
[2]
  negative nitrogen balance: decreased the negative nitrogen balance
[2]; leucine concentrations giving maximal inhibition of protein degradation
  rate of protein synthesis as % of the rate of proteolysis: 50%
[3]
  protein degradation: prohibited protein degradation
  specific activity of muscle proteins (protein synthesis): increased

## CC(C)(O)CC(=O)O [HMB, b-hydroxy b-methylbutyrate]
[4]
  effect on catabolism, lean muscle mass and recuperation: anti-catabolic, promotes lean muscle mass, and may speed recuperation

## CC[C@H](C)[C@H](N)C(=O)O [isoleucine]
[1]
  protein synthesis in skeletal muscle of food-deprived rats: ineffective
[2]
  negative nitrogen balance: not
[3]
  specific activity of muscle proteins (protein synthesis): inhibitory effects
